Experimental data reported in patent publication US11332477B2, “Nitrogen containing heterocycle substituted benzoxazine oxazolidinone compound and preparation method and use thereof” (INSTITUTE OF MATERIA MEDICA, CHINESE ACADEMY OF MEDICAL …, priority 2017, dated 2022).
≈ marks a conversion by molar mass, not a printed value.

Experiments:
[1] = tested on: mitochondrial protein synthesis; test: Activity of inhibiting mitochondrial protein synthesis; format: biochemical; conditions: mitochondrial protein synthesis inhibition, Table 3
Experimental: The experimental steps were carried out according to the literature (Antimicrobial Agents and Chemotherapy, 2006, 50 (6), 2042-2049).

Vero cells = test: Cytotoxicity test (MTT); format: cell-based; conditions: Chlorocebus sabaeus; Vero cells, MTT, 48 hours of incubation, highest concentration 64 μg/mL; read-out: IC50
[2] = tested on: Mycobacterium tuberculosis H37Rv; test: Anti-tuberculosis activity test in vitro (Microplate Alamar Blue Assay, MABA); format: cell-based; conditions: M. tuberculosis H37Rv, MABA, 7H9 medium, method says MIC90 was calculated, read-out: MIC

Row | SMILES | IC50 [1] | IC50 (Vero cells) | melting point | MIC [2]
1 | CC(=O)NC[C@@H]1OC(=O)N2c3cc(F)c(N4CC[S+]([O-])CC4)cc3OC[C@@H]12 [Compound 23, N-(((3S,3aS)-8-Fluoro-1-oxo-7-(1-oxidothiomorpholino)-3a,4-dihydro-1H,3H-benzo[b]oxazolo[3,4-d][1,4]oxazin-3-yl)methyl)acetamide] | 60.57 µg/mL (≈ 152 µM) | > 64 µg/mL | 214 to 216 °C | 0.442 µg/mL (≈ 1.11 µM)
2 | O=C(NC[C@@H]1OC(=O)N2c3cc(F)c(N4CCSCC4)cc3OC[C@@H]12)c1cnccn1 [Compound 11, N-(((3S,3aS)-8-Fluoro-1-oxo-7-thiomorpholino-3a,4-dihydro-1H,3H-benzo[b]oxazolo[3,4-d][1,4]oxazin-3-yl)methyl)pyrazine-2-carboxamide] | >100 µg/mL | 40.7 µg/mL (≈ 91.3 µM) | 212 to 214 °C | 0.115 µg/mL (≈ 0.258 µM)
3 | O=C1O[C@@H](Cn2ccnn2)[C@@H]2COc3cc(N4CCSCC4)c(F)cc3N12 [Compound 12, (3S,3aS)-3-((1H-1,2,3-Triazol-1-yl)methyl)-8-fluoro-7-thiomorpholino-3a,4-dihydro-1H,3H-benzo[b]oxazolo[3,4-d][1,4]oxazin-1-one] | >100 µg/mL | > 64 µg/mL | 223 to 225 °C | 0.227 µg/mL (≈ 0.58 µM)
4 | O=C(NC[C@@H]1OC(=O)N2c3cc(F)c(N4CCSCC4)cc3OC[C@@H]12)C1CC1 [Compound 6, N-(((3S,3aS)-8-Fluoro-1-oxo-7-thiomorpholino-3a,4-dihydro-1H,3H-benzo[b]oxazolo[3,4-d][1,4]oxazin-3-yl)methyl)cyclopropanecarboxamide] | >100 µg/mL | > 64 µg/mL | 209 to 211 °C | 0.034 µg/mL (≈ 0.0834 µM)
5 | O=C1O[C@H](CNc2ccon2)[C@H]2COc3cc(N4CCSCC4)c(F)cc3N12 [Compound 31, (3R,3aR)-8-Fluoro-3-((isoxazol-3-ylamino)methyl)-7-thiomorpholino-3a,4-dihydro-1H, 3H-benzo[b]oxazolo[3,4-d][1,4]oxazin-1-one] | >100 µg/mL | > 64 µg/mL | 149 to 150 °C | 0.123 µg/mL (≈ 0.303 µM)
6 | O=C(NC[C@@H]1OC(=O)N2c3cc(F)c(N4CCSCC4)cc3OC[C@@H]12)c1ccncc1 [Compound 10, N-(((3S,3aS)-8-Fluoro-1-oxo-7-thiomorpholino-3a,4-dihydro-1H,3H-benzo[b]oxazolo[3,4-d][1,4]oxazin-3-yl)methyl)isonicotinamide] | >100 µg/mL | > 64 µg/mL | 135 to 137 °C | 0.16 µg/mL (≈ 0.36 µM)
7 | O=C(NC[C@H]1OC(=O)N2c3cc(F)c(N4CCSCC4)cc3OC[C@H]12)C1CCC1 [Compound 29, N-(((3R,3aR)-8-Fluoro-1-oxo-7-thiomorpholino-3a,4-dihydro-1H,3H-benzo[b]oxazolo[3,4-d][1,4]oxazin-3-yl)methyl)cyclobutane carboxamide] | >100 µg/mL | > 64 µg/mL | 183 to 185 °C | 0.219 µg/mL (≈ 0.52 µM)
8 | COC(=O)NC[C@@H]1OC(=O)N2c3cc(F)c(N4CCSCC4)cc3OC[C@@H]12 [Compound 8, Methyl (((3S,3aS)-8-Fluoro-1-oxo-7-thiomorpholino-3a,4-dihydro-1H,3H-benzo[b]oxazolo[3,4-d][1,4]oxazin-3-yl)methyl)carbamate] | >100 µg/mL | > 64 µg/mL | 155 to 156 °C | 0.031 µg/mL (≈ 0.078 µM)
9 | CC(C)C(=O)NC[C@@H]1OC(=O)N2c3cc(F)c(N4CCSCC4)cc3OC[C@@H]12 [Compound 5, N-(((3S,3aS)-8-Fluoro-1-oxo-7-thiomorpholino-3a,4-dihydro-1H,3H-benzo[b]oxazolo[3,4-d][1,4]oxazin-3-yl)methyl)isobutyramide] | >100 µg/mL | > 64 µg/mL | 193 to 195 °C | 0.095 µg/mL (≈ 0.232 µM)
10 | O=C1O[C@@H](CNc2ccon2)[C@@H]2COc3cc(N4CCSCC4)c(F)cc3N12 [Compound 9, (3S,3aS)-8-Fluoro-3-((isoxazol-3-ylamino)methyl)-7-thiomorpholino-3a,4-dihydro-1H,3H-benzo[b]oxazolo[3,4-d][1,4]oxazin-1-one] | >100 µg/mL | > 64 µg/mL | 148 to 150 °C | 0.025 µg/mL (≈ 0.0615 µM)
11 | O=C(NC[C@@H]1OC(=O)N2c3cc(F)c(N4CCSCC4)cc3OC[C@@H]12)C1CCC1 [Compound 7, N-(((3S,3aS)-8-Fluoro-1-oxo-7-thiomorpholino-3a,4-dihydro-1H,3H-benzo[b]oxazolo[3,4-d][1,4]oxazin-3-yl)methyl)cyclobutanecarboxamide] | 53.69 µg/mL (≈ 127 µM) | > 64 µg/mL | 176 to 178 °C | 0.03 µg/mL (≈ 0.0712 µM)
12 | NC[C@@H]1OC(=O)N2c3cc(F)c(N4CCSCC4)cc3OC[C@@H]12 [Compound 1, (3S,3aS)-3-(Aminomethyl)-8-fluoro-7-thiomorpholino-3a, 4-dihydro-1H,3H-benzo[b]ox azolo[3,4-d][1,4]oxazin-1-one] | 75.51 µg/mL (≈ 222 µM) | 36 µg/mL (≈ 106 µM) | 155 to 157 °C | 0.029 µg/mL (≈ 0.0854 µM)
